This note sets out measurements from patent publication US8722713B2, “Synergistic antimicrobial composition of 1,2-benzisothiazolin-3-one and tris(hydroxymethyl)nitromethane” (Dow Global Technologies LLC, priority 2010, dated 2014).

The test system of experiment [1] is oil field isolated anaerobic consortium, mainly SRB. In words: Biocidal efficacy (MBC) against anaerobic bacteria in contaminated salt solution. Format: cell-based. As to conditions: 40° C., 24 hour, 10^6 to 10^7 CFU/mL. The procedure:
Inside an anaerobic chamber (Bactron anaerobic chamber), a deaerated sterile salt solution (3.1183 g of NaCl, 1.3082 mg of NaHCO3, 47.70 mg of KCl, 72.00 mg of CaCl2, 54.49 mg of MgSO4, 172.28 mg of Na2SO4, 43.92 mg of Na2CO3 in 1 L water) was contaminated with an oil field isolated anaerobic consortium, mainly SRB, at final bacterial concentrations of 10^6 to 10^7 CFU/mL. The aliquots of this contaminated water were then treated with BIT, Tris Nitro, or the BIT/Tris Nitro combinations at different active concentration levels. After the mixtures were incubated at 40° C. for 24 hour, the biocidal efficacy was determined by minimum tested biocide concentration for bacteria kill in the aliquots (MBC). Table 1 summarizes the efficacy of each biocide and their blends, and the Synergy Index* of each combination.

Experiment [2] concerns Psedomonas aeruginosa ATCC 10145 and Staphylococcus aureus ATCC 6538. Put plainly: Biocidal efficacy (MBC, complete kill) against aerobic bacteria in contaminated NaCl solution. As to conditions: 37° C., 24 hour, ~10^6 CFU/ml. Format: cell-based. How it is done: A sterile NaCl solution (0.85%) was contaminated with Psedomonas aeruginosa ATCC 10145 and Staphylococcus aureus ATCC 6538 at final bacterial concentration of ˜10^6 CFU/ml. The aliquots of this contaminated water were then treated with BIT, Tris Nitro, or the BIT/Tris Nitro combination at different active concentration levels. […] Table 2 summarizes the efficacy of each biocide and their blends, and the Synergy Index of each combination.

`O=[N+]([O-])C(CO)(CO)CO` [0:1, tris(hydroxymethyl)nitromethane]: in experiment [1] (concentration of Tris Nitro at minimum tested biocide concentration for bacteria kill), the “MBC (active ppm) Tris Nitro” value is on record as more than 100 active ppm. In addition, the “Dosage required for complete kill (active ppm) Tris Nitro” value in experiment [2] (concentration of Tris Nitro at MBC) worked out at 25.7 active ppm.

For `O=c1[nH]sc2ccccc12` [1:0, 1,2-benzisothiazolin-3-one], in experiment [1] (concentration of BIT at minimum tested biocide concentration for bacteria kill), the “MBC (active ppm) BIT” value is given as 17.3 active ppm. Further, the “Dosage required for complete kill (active ppm) BIT” value in experiment [2] (concentration of BIT at MBC) was more than 25 active ppm.
